Test results taken from the NIST ThermoML archive (doi:10.1021/acs.jced.8b00132).
Where “and” joins values, the source holds several entries; their conditions need not be identical. Identical values can stand only once.

O=C(C(F)(F)C(F)(F)F)C(F)(C(F)(F)F)C(F)(F)F [dodecafluoro-2-methylpentan-3-one]
Conditions | thermal conductivity
344.55 K, 132 kPa, Gas, hot wire | 0.01525 W/m/K
344.55 K, 192 kPa, Gas, transient hot wire | 0.01458 W/m/K
344.56 K, 170 kPa, Gas, transient hot wire | 0.01468 W/m/K
344.56 K, 192 kPa, Gas, transient hot wire | 0.01463 W/m/K
344.57 K, 170 kPa, Gas, transient hot wire | 0.01503 W/m/K
344.6 K, 134 kPa, Gas, transient hot wire | 0.01526 W/m/K and 0.01525 W/m/K
344.61 K, 83 kPa, Gas, hot wire | 0.01485 W/m/K
344.62 K, 83 kPa, Gas, hot wire | 0.0148 W/m/K
344.67 K, 26 kPa, Gas, hot wire | 0.01453 W/m/K
344.68 K, 26 kPa, Gas, hot wire | 0.01449 W/m/K
344.8 K, 192 kPa, Gas, transient hot wire | 0.01479 W/m/K and 0.01481 W/m/K
344.83 K, 170 kPa, Gas, transient hot wire | 0.01525 W/m/K and 0.01449 W/m/K
344.85 K, 134 kPa, Gas, transient hot wire | 0.01542 W/m/K
344.87 K, 134 kPa, Gas, transient hot wire | 0.01544 W/m/K
345.08 K, 191 kPa, Gas, transient hot wire | 0.0149 W/m/K
345.08 K, 192 kPa, Gas, transient hot wire | 0.01491 W/m/K
345.11 K, 169 kPa, Gas, transient hot wire | 0.01531 W/m/K
345.11 K, 170 kPa, Gas, transient hot wire | 0.01528 W/m/K
345.14 K, 134 kPa, Gas, transient hot wire | 0.01546 W/m/K
345.15 K, 133 kPa, Gas, transient hot wire | 0.01547 W/m/K
345.36 K, 191 kPa, Gas, transient hot wire | 0.01503 W/m/K
345.37 K, 191 kPa, Gas, transient hot wire | 0.01504 W/m/K
345.39 K, 169 kPa, Gas, transient hot wire | 0.01534 W/m/K
345.4 K, 169 kPa, Gas, transient hot wire | 0.01485 W/m/K
345.44 K, 133 kPa, Gas, transient hot wire | 0.01551 W/m/K
345.45 K, 133 kPa, Gas, transient hot wire | 0.0155 W/m/K
345.67 K, 191 kPa, Gas, transient hot wire | 0.01515 W/m/K
345.68 K, 191 kPa, Gas, transient hot wire | 0.01514 W/m/K
345.72 K, 169 kPa, Gas, transient hot wire | 0.0154 W/m/K and 0.01511 W/m/K
345.77 K, 132 kPa, Gas, transient hot wire | 0.01531 W/m/K
345.77 K, 133 kPa, Gas, transient hot wire | 0.01548 W/m/K
358.25 K, 257 kPa, Gas, hot wire | 0.01686 W/m/K
358.26 K, 257 kPa, Gas, hot wire | 0.01685 W/m/K
358.3 K, 188 kPa, Gas, hot wire | 0.01631 W/m/K
358.3 K, 189 kPa, Gas, hot wire | 0.01648 W/m/K
358.33 K, 91 kPa, Gas, hot wire | 0.01584 W/m/K
358.34 K, 91 kPa, Gas, hot wire | 0.01584 W/m/K
358.37 K, 26 kPa, Gas, hot wire | 0.01548 W/m/K and 0.01551 W/m/K
358.38 K, 256 kPa, Gas, hot wire | 0.01692 W/m/K
358.38 K, 257 kPa, Gas, hot wire | 0.01694 W/m/K
358.43 K, 187 kPa, Gas, hot wire | 0.01629 W/m/K
358.43 K, 188 kPa, Gas, hot wire | 0.01632 W/m/K
358.47 K, 91 kPa, Gas, hot wire | 0.01587 W/m/K and 0.0159 W/m/K
358.5 K, 26 kPa, Gas, hot wire | 0.01551 W/m/K
358.5 K, 256 kPa, Gas, hot wire | 0.01713 W/m/K
358.51 K, 26 kPa, Gas, hot wire | 0.0155 W/m/K
358.52 K, 256 kPa, Gas, hot wire | 0.0169 W/m/K
358.57 K, 187 kPa, Gas, hot wire | 0.01629 W/m/K and 0.01635 W/m/K
358.62 K, 91 kPa, Gas, hot wire | 0.01584 W/m/K and 0.01592 W/m/K
358.62 K, 255 kPa, Gas, hot wire | 0.01734 W/m/K
358.63 K, 256 kPa, Gas, hot wire | 0.01729 W/m/K
358.65 K, 67979 kPa, Liquid, transient hot wire | 0.07391 W/m/K
358.66 K, 26 kPa, Gas, hot wire | 0.01548 W/m/K and 0.01547 W/m/K
358.66 K, 67960 kPa, Liquid, transient hot wire | 0.07383 W/m/K
358.69 K, 56156 kPa, Liquid, transient hot wire | 0.07064 W/m/K
358.69 K, 56160 kPa, Liquid, transient hot wire | 0.07055 W/m/K
358.71 K, 187 kPa, Gas, hot wire | 0.01648 W/m/K and 0.01644 W/m/K
358.77 K, 92 kPa, Gas, hot wire | 0.01588 W/m/K and 0.01586 W/m/K
358.77 K, 255 kPa, Gas, hot wire | 0.01736 W/m/K
358.77 K, 43866 kPa, Liquid, transient hot wire | 0.06694 W/m/K
358.77 K, 43876 kPa, Liquid, transient hot wire | 0.06686 W/m/K
358.78 K, 255 kPa, Gas, hot wire | 0.01726 W/m/K
358.82 K, 26 kPa, Gas, hot wire | 0.01555 W/m/K and 0.0155 W/m/K
358.82 K, 67912 kPa, Liquid, transient hot wire | 0.07388 W/m/K
358.82 K, 67930 kPa, Liquid, transient hot wire | 0.07402 W/m/K
358.83 K, 33615 kPa, Liquid, transient hot wire | 0.06347 W/m/K
358.84 K, 257 kPa, Gas, transient hot wire | 0.01632 W/m/K
358.84 K, 258 kPa, Gas, transient hot wire | 0.01621 W/m/K
358.84 K, 33614 kPa, Liquid, transient hot wire | 0.06347 W/m/K
358.85 K, 186 kPa, Gas, hot wire | 0.0166 W/m/K and 0.01657 W/m/K
358.85 K, 56137 kPa, Liquid, transient hot wire | 0.07063 W/m/K
358.88 K, 189 kPa, Gas, transient hot wire | 0.01639 W/m/K
358.88 K, 56124 kPa, Liquid, transient hot wire | 0.07064 W/m/K
358.9 K, 188 kPa, Gas, transient hot wire | 0.01635 W/m/K
358.92 K, 24957 kPa, Liquid, transient hot wire | 0.06017 W/m/K
358.92 K, 24958 kPa, Liquid, transient hot wire | 0.06023 W/m/K
358.94 K, 92 kPa, Gas, hot wire | 0.01588 W/m/K
358.95 K, 92 kPa, Gas, hot wire | 0.01588 W/m/K
358.95 K, 43858 kPa, Liquid, transient hot wire | 0.06694 W/m/K
358.95 K, 43862 kPa, Liquid, transient hot wire | 0.06691 W/m/K
358.98 K, 26 kPa, Gas, hot wire | 0.01553 W/m/K
358.99 K, 26 kPa, Gas, hot wire | 0.0155 W/m/K
358.99 K, 67877 kPa, Liquid, transient hot wire | 0.0739 W/m/K
358.99 K, 67897 kPa, Liquid, transient hot wire | 0.07388 W/m/K
